Results from ChEMBL document CHEMBL5370659 (J Med Chem, 2023).
The source made the active and inactive calls. The calls are words filed in the database; no cut-off is given here.

What was measured:
Mus musculus [1] = assay: Effect on time spent in central zone of C57BL/6N mouse at 100 mg/kg, po treated for 14 days by locomotor activity test; type: functional, organism-based; conditions: time 14.0 day
[2] = Plasma protein binding in human; type: ADME, cell-free; conditions: read-out: PPB (converted)
Mus musculus [3] = assay: Effect on hedonic component behavior in C57BL/6N mouse at 50 mg/kg, po treated for 14 days by sucrose preference test; type: functional, organism-based; conditions: time 14.0 day
[4] = Plasma concentration in CD-1 (ICR) mouse at 50 mg/kg measured 2 hrs by LC-MS/MS analysis; type: ADME, organism-based
[5] = Tlast in CD-1 (ICR) mouse at 50 mg/kg, po measured upto 1440 mins by LC-MS/MS analysis; type: ADME, organism-based; conditions: in vivo, 24 h
[6] = Mutagenicity in Salmonella typhimurium TA98 in presence or absence of rat liver S9 fraction by Ames test; type: toxicity; conditions: salmonella enterica subsp. enterica serovar typhimurium
[7] = Drug uptake in CD-1 (ICR) mouse brain at 50 mg/kg measured 0.5 hrs by LC-MS/MS analysis; type: ADME, organism-based; conditions: read-out: Drug uptake
[8] = biological target: T1, Tryptophan 5-hydroxylase 2 (Homo sapiens, UniProt Q8IWU9); assay: Inhibition of recombinant MBP-tagged full length human THP2 using L-Trp as substrate assessed as formation of 5-HTP by measuring fluorescent property
T1 sequence (Q8IWU9 whole entry): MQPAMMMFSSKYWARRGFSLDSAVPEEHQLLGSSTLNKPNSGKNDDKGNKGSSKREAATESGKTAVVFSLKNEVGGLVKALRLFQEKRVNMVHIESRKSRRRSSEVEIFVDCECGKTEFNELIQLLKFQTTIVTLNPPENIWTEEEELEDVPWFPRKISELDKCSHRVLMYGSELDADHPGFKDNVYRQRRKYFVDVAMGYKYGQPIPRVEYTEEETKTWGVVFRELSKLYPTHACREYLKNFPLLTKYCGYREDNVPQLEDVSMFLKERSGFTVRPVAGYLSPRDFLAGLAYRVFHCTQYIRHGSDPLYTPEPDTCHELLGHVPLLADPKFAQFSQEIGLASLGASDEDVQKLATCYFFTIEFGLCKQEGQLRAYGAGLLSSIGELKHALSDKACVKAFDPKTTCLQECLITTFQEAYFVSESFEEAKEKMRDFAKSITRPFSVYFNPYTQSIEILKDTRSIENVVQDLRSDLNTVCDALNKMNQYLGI

[9] = MRT (0 to infinitive) in Sprague-Dawley rat at 50 mg/kg, po measured upto 1440 mins by LC-MS/MS analysis; type: ADME, organism-based; conditions: in vivo
Cytochrome P450 1A2 = biological target: T2, Cytochrome P450 1A2 (Homo sapiens, UniProt P05177); assay: Inhibition of CYP1A2 in human liver microsome using phenacetin as substrate measured upto 50 uM incubated for 10 mins followed by NADPH addition incubated for 10 mins by LC/MS/MS analysis; type: ADME; conditions: microsomes, 20 min
T2 sequence (P05177 whole entry): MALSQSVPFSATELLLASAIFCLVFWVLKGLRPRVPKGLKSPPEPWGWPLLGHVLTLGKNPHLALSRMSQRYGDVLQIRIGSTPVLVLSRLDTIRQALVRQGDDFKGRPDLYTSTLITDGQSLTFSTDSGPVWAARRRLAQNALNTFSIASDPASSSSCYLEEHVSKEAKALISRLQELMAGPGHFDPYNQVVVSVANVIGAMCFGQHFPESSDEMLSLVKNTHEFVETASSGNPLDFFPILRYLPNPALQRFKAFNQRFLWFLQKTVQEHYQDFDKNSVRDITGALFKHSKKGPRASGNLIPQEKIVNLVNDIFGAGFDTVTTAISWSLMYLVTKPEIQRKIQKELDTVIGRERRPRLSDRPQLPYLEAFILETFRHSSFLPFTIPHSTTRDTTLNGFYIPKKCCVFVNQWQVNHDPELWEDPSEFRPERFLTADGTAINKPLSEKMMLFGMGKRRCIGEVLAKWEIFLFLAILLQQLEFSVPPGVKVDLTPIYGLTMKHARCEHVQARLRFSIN

[10] = Permeability across apical to basal side in MDCK-MDR1 cells at pH 6.5/7.4 measured at 5 uM by LC-MS/MS analysis; type: ADME, cell-based, Canis lupus familiaris; conditions: dog, MDCK-MDR1, pH 6.5
[11] = MRT (0 to last) in CD-1 (ICR) mouse at 50 mg/kg, po measured upto 1440 mins by LC-MS/MS analysis; type: ADME, organism-based; conditions: in vivo
[12] = Plasma concentration in CD-1 (ICR) mouse at 50 mg/kg measured 0.5 hrs by LC-MS/MS analysis; type: ADME, organism-based
[13] = Half life in Sprague-Dawley rat at 10 mg/kg, iv measured upto 1440 mins by LC-MS/MS analysis; type: ADME, organism-based; conditions: in vivo
[14] = biological target: Voltage-gated inwardly rectifying potassium channel KCNH2 (Homo sapiens, UniProt Q12809); assay: Inhibition of hERG channel expressed in CHO cells by whole-cell patch clamp assay; type: toxicity, cell-based
Voltage-gated inwardly rectifying potassium channel KCNH2, sequence (Q12809 whole entry): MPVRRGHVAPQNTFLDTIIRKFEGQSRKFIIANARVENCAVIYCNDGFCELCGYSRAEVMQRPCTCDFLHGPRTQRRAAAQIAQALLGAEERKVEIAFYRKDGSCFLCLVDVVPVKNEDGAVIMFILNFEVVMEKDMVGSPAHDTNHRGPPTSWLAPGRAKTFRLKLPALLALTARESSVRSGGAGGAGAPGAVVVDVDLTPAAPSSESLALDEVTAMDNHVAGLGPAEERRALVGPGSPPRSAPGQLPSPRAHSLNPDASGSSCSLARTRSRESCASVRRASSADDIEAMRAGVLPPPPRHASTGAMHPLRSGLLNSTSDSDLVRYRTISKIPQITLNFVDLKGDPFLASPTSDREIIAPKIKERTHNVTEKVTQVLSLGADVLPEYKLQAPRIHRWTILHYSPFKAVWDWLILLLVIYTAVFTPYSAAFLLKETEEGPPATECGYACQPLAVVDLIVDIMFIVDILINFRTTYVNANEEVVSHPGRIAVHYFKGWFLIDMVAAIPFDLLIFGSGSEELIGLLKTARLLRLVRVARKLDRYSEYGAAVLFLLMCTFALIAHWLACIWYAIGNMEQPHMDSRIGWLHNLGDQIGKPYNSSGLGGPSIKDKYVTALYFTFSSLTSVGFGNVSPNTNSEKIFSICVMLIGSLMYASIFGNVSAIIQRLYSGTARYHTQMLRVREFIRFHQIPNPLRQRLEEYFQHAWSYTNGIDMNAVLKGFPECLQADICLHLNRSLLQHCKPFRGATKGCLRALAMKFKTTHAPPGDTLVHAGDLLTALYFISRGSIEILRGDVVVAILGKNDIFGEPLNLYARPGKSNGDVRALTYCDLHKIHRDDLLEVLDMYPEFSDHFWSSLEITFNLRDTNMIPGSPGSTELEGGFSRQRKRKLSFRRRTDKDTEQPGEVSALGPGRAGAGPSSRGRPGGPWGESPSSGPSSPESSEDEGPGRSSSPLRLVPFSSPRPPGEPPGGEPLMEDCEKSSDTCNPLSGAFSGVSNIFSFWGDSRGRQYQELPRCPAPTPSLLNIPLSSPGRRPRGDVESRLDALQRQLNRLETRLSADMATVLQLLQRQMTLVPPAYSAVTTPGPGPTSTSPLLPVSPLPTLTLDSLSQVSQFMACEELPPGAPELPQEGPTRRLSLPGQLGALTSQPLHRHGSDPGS

Cytochrome P450 2C19 = Cytochrome P450 2C19 (Homo sapiens, UniProt P33261); assay: Inhibition of CYP2C19 in human liver microsome using S-mephenytoin as substrate measured upto 50 uM incubated for 10 mins followed by NADPH addition incubated for 10 mins by LC/MS/MS analysis; type: ADME; conditions: microsomes, 20 min
Cytochrome P450 2C19, sequence (P33261 whole entry): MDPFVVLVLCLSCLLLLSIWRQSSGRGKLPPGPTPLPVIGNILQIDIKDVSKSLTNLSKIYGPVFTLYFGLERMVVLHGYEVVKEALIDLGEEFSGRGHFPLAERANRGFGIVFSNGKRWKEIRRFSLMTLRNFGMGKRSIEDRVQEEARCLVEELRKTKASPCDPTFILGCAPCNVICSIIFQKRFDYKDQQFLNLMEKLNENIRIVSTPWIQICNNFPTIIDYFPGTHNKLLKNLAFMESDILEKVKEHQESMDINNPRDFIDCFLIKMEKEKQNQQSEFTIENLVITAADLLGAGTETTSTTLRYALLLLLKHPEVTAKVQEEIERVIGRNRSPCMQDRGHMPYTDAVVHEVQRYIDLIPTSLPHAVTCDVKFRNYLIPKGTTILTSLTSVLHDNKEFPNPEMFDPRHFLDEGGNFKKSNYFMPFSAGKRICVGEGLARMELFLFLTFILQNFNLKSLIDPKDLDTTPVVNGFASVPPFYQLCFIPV

[15] = AUCExtra in CD-1 (ICR) mouse at 50 mg/kg, po measured upto 1440 mins by LC-MS/MS analysis; type: ADME, organism-based; conditions: in vivo, 24 h
[16] = MRT (0 to infinitive) in CD-1 (ICR) mouse at 50 mg/kg, po measured upto 1440 mins by LC-MS/MS analysis; type: ADME, organism-based; conditions: in vivo
Mus musculus [17] = assay: Effect on C57BL/6N mouse assessed as brain serotonin turnover measuring 5-HT/TRP ratio at 1.5 to 50 mg/kg, po bid treated for 6 to 7 days; type: functional, organism-based; conditions: dose 1.5-50 mg/kg, time 6-7 day
Cytochrome P450 3A4 = Cytochrome P450 3A4 (Homo sapiens, UniProt P08684); assay: Inhibition of CYP3A4 in human liver microsome using midazolam as substrate measured upto 50 uM incubated for 10 mins followed by NADPH addition incubated for 10 mins by LC/MS/MS analysis; type: ADME; conditions: microsomes, 20 min
Cytochrome P450 3A4, sequence (P08684 whole entry): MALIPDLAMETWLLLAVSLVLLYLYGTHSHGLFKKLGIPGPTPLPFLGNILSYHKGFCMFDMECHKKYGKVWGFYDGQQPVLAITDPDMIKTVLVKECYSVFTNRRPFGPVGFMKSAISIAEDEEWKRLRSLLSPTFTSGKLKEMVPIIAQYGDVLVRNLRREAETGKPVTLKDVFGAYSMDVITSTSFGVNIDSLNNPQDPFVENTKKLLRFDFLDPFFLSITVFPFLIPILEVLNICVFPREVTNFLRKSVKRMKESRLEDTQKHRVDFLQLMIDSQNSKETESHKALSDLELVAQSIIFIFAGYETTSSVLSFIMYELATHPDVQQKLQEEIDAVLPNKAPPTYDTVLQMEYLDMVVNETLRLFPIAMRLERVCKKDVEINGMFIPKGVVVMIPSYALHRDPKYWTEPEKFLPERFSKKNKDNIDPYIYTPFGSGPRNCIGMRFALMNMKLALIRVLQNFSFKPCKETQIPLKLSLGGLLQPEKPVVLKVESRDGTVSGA

[18] = Apparent permeability across basal to apical side in human Caco-2 cells at pH 6.5/7.4 measured at 5 uM by LC-MS/MS analysis; type: ADME, cell-based; conditions: Caco-2, pH 6.5
[19] = AUMCExtra in Sprague-Dawley rat at 10 mg/kg, iv measured upto 1440 mins by LC-MS/MS analysis; type: ADME, organism-based; conditions: in vivo, 24 h
[20] = Drug uptake in Sprague-Dawley rat lung at 20 mg/kg, po measured at 0.5 hrs by LC-MS/MS analysis; type: ADME, organism-based; conditions: read-out: Drug uptake
[21] = Drug uptake in Sprague-Dawley rat lung at 20 mg/kg, po measured at 2 hrs by LC-MS/MS analysis; type: ADME, organism-based; conditions: read-out: Drug uptake
[22] = Reduction in serotonin level in C57BL/6N mouse duodenum at 1.5 mg/kg, po bid treated for 7 days by HPLC analysis relative to control; type: functional; conditions: 168 h, time 7 day
[23] = AUCExtra in Sprague-Dawley rat at 10 mg/kg, iv measured upto 1440 mins by LC-MS/MS analysis; type: ADME, organism-based; conditions: in vivo, 24 h
[24] = Metabolic stability in rat hepatocytes assessed as intrinsic clearance; type: ADME, cell-based, Hepatocyte; conditions: read-out: CLH
[25] = Plasma protein binding in rat; type: ADME, cell-free; conditions: read-out: PPB (converted)

For `CCn1c(=O)[nH]c(=O)c2c1nc(Cc1cn3cc(C)sc3n1)n2CC1COC1`, the Activity (Mus musculus [1]) was “inactive”, the fraction unbound [2] was 0.49 and the Activity (Mus musculus [3]) was “inactive”. The concentration at 2 h [4] was 1610 ng/mL, the Tlast [5] was 12 h and the Activity [6] was “Non-Toxic”. The concentration at 0.5 h [7] was 53 ng/g, the IC50 [8] was 16 nM and the MRT inf [9] was 2.75 h. The “inhibition (INH)” value (Cytochrome P450 1A2) was “Not Active”, the Papp A→B at 5 µM [10] was under 0.54 ×10⁻⁶ cm/s and the MRT last at 24 h [11] was 1.58 h. For the same compound, the concentration at 0.5 h [12] was 7390 ng/mL, the half-life [13] was 3.39 h and the IC50 [14] was over 30000 nM. The “inhibition (INH)” value (Cytochrome P450 2C19) was “Not Active”, the “%AUCextra” value [15] was 0.552% and the MRT inf [16] was 1.65 h. The Activity (Mus musculus [17]) was “inactive”, the “inhibition (INH)” value (Cytochrome P450 3A4) was “Not Active” and the Papp B→A at 5 µM [18] was 23 ×10⁻⁶ cm/s. It also gave an AUMC [19] of 13.6%, a concentration at 0.5 h [20] of 482 ng/g and a concentration at 2 h [21] of 76 ng/g. The inhibition in vivo at 1.5 mg/kg [22] was 40%, the “%AUCextra” value [23] was 0.46% and the CLint scaled [24] was under 17 mL/min/kg. For the same compound, the fraction unbound [25] was 0.52.
